Reference: patent US20050245399A1, “Pyrazole derivatives as herbicidal compositions containing them” (ISHIHARA SANGYO KAISHA, LTD., priority 2004, published 2005)

Key:
Format in all cases: in vivo
[1] = test system: redroot pigweed (Amaranthus retroflexus L.), AMARE; assay: Test Example 2 post-emergence (foliage treatment) herbicidal activity, AMARE; details: 63 g a.i./ha
Method in brief: (§1)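 Greenhouse pot test with upland field soil. Treatment: foliage spray, active ingredient at a predetermined amount, 500 L/ha, spreader 0.1% (v/v); leaf stage 0.1-1.5 (AMARE), 1.1-2.1 (ECHCG), 1.0-2.0 (DIGSA), 1.0-2 (ORYSA). Endpoint: visual % control, d20-23.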

[2] = test system: velvetleaf (Abutilon theophrasti), ABUTH; assay: Test Example 2 post-emergence (foliage treatment) herbicidal activity, ABUTH; details: 63 g a.i./ha
Method in brief: (§2)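 Foliar spray of formulated compound (500 L/ha dilution water, 0.1% v/v spreader) onto young potted plants at defined leaf stages. Scored 0-100% by visual inspection 20-23 d post-spray.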

[3] = test system: barnyardgrass (Echinochloa crus-galli L.): ECHCG; assay: Test Example 1 pre-emergence herbicidal activity, ECHCG; details: Rate 63 g a.i./ha, visually observed 20th to 23rd day after application
Method in brief: (§3)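 Compound was delivered by small sprayer to sown upland soil one day after sowing, before emergence, at 500 L/ha spray volume. Plant growth was assessed visually around 3 weeks later (days 20–23), 100% denoting complete kill.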

[4] = test system: rice (Oryza sativa L.), ORYSA; assay: Test Example 2 post-emergence (foliage treatment) herbicidal activity, ORYSA; details: 63 g a.i./ha
Method in brief: as §1

[5] = test system: soybean (Glycine max Merr.), GLXMA; assay: Test Example 2 post-emergence (foliage treatment) herbicidal activity, GLXMA; details: 63 g a.i./ha
Method in brief: as §2

[6] = test system: rice (Oryza sativa L.: ORYSA); assay: Test Example 3 water application herbicidal activity (paddy), transplanted rice ORYSA; details: 63 g a.i./ha, water application 4th day after transplantation of 2 leaf stage rice, visually observed 21st day after application; 0 = untreated control, 100 = complete kill
Text: Paddy field soil was put into a 1/1,000,000 ha pot and seeds of barnyardgrass (Echinochiloa oryzicola: ECHOR) and japanese bulrush (Scirpus juncoides: SCPJO) were sown and slightly covered with soil. Then the pot was left to stand still in a greenhouse in a state where the depth of flooding water was from 0.5 to 1 cm, and one day later, tubers of japanese ribbon wapato (Sagittaria pygmaea: SA GPY) were planted. Thereafter, the depth of flooding water was maintained at a level of from 3 to 4 cm, and when barnyardgrass and japanese bulrush reached a 0.5 leaf stage, an aqueous diluted solution of a wettable powder or emulsifiable concentrate having the compound of the present invention formulated in accordance with a usual formulation method, was uniformly applied under submerged condition by a pipette so that the dose of the active ingredient would be at a predetermined level. On the other hand, paddy filed soil was put into a 1/1,000,000 ha pot and puddled and leveled, and the depth of flooding water was from 3 to 4 cm. One day later, rice (Oryza sativa L.: ORYSA) of 2 leaf stage was transplanted in a depth of 3 cm. On the 4th day after the transplantation, the compound of the present invention was applied in the same manner as described above. On the 14th day after the application of the herbicide, the growth of barnyardgrass, japanese burlush and japanese ribbon wapato was visually observed and on the 21st day after the application of the herbicide, the growth of rice was visually observed, and the herbicidal effects were evaluated by growth controlling degrees (%) ranging from 0 (equivalent to the untreated control) to 100 (complete kill), whereby the results shown in Table 6, were obtained. Compound Nos. in Table 6 correspond to Compound Nos. in Table 1 and 2 given hereinbefore.

[7] = test system: corn (Zea mays L.), ZEAMX; assay: Test Example 2 post-emergence (foliage treatment) herbicidal activity, ZEAMX; details: 63 g a.i./ha
Method in brief: as §2

[8] = test system: crabgrass (Digitaria sanguinalis L.), DIGSA; assay: Test Example 2 post-emergence (foliage treatment) herbicidal activity, DIGSA; details: 63 g a.i./ha
Method in brief: as §1

[9] = test system: wheat (Triticum aestivum L.): TRZAX; assay: Test Example 1 pre-emergence herbicidal activity, TRZAX; details: Rate 63 g a.i./ha, visually observed 20th to 23rd day after application
Method in brief: as §3

[10] = test system: redroot pigweed (Amaranthus retroflexus L.): AMARE; assay: Test Example 1 pre-emergence herbicidal activity, AMARE; details: Rate 63 g a.i./ha, visually observed 20th to 23rd day after application
Method in brief: as §3

[11] = test system: japanese bulrush (Scirpus juncoides: SCPJO); assay: Test Example 3 water application herbicidal activity (paddy), SCPJO; details: 63 g a.i./ha, water application under submerged condition at 0.5 leaf stage, visually observed 14th day after application; 0 = untreated control, 100 = complete kill
Method in brief: (§4)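 Flooded paddy-soil pots in greenhouse; ECHOR and SCPJO sown, SAGPY tubers planted a day later, compound applied into 3–4 cm water at weeds' 0.5-leaf stage. Rice transplanted at 2-leaf stage, treated day 4 after transplanting. Visual growth control 0–100% at 14 days (weeds) and 21 days (rice) after application.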

[12] = test system: japanese ribbon wapato (Sagittaria pygmaea: SA GPY); assay: Test Example 3 water application herbicidal activity (paddy), SAGPY; details: 63 g a.i./ha, water application under submerged condition, tubers planted, visually observed 14th day after application; 0 = untreated control, 100 = complete kill
Method in brief: as §4

[13] = test system: green foxtail (Setaria viridis L.): SETVI; assay: Test Example 1 pre-emergence herbicidal activity, SETVI; details: Rate 63 g a.i./ha, visually observed 20th to 23rd day after application
Method in brief: as §3

[14] = test system: velvetleaf (Abutilon theophrasti): ABUTH; assay: Test Example 1 pre-emergence herbicidal activity, ABUTH; details: Rate 63 g a.i./ha, visually observed 20th to 23rd day after application
Method in brief: as §3

[15] = test system: rice (Oryza sativa L.): ORYSA; assay: Test Example 1 pre-emergence herbicidal activity, ORYSA; details: Rate 63 g a.i./ha, visually observed 20th to 23rd day after application
Method in brief: as §3

[16] = test system: crabgrass (Digitaria sanguinalis L.): DIGSA; assay: Test Example 1 pre-emergence herbicidal activity, DIGSA; details: Rate 63 g a.i./ha, visually observed 20th to 23rd day after application
Method in brief: as §3

[17] = test system: soybean (Glycine max Merr.): GLXMA; assay: Test Example 1 pre-emergence herbicidal activity, GLXMA; details: Rate 63 g a.i./ha, visually observed 20th to 23rd day after application
Method in brief: as §3

[18] = test system: corn (Zea mays L.): ZEAMX; assay: Test Example 1 pre-emergence herbicidal activity, ZEAMX; details: Rate 63 g a.i./ha, visually observed 20th to 23rd day after application
Method in brief: as §3

[19] = test system: barnyardgrass (Echinochloa crus-galli L.), ECHCG; assay: Test Example 2 post-emergence (foliage treatment) herbicidal activity, ECHCG; details: 63 g a.i./ha
Method in brief: as §1

[20] = test system: barnyardgrass (Echinochiloa oryzicola: ECHOR); assay: Test Example 3 water application herbicidal activity (paddy), ECHOR; details: 63 g a.i./ha, water application under submerged condition at 0.5 leaf stage, visually observed 14th day after application; 0 = untreated control, 100 = complete kill
Method in brief: as §4

[21] = test system: wheat (Triticum aestivum L.), TRZAX; assay: Test Example 2 post-emergence (foliage treatment) herbicidal activity, TRZAX; details: 63 g a.i./ha
Method in brief: as §2

[22] = test system: prickly sida (Sida spinosa L.), SIDSP; assay: Test Example 2 post-emergence (foliage treatment) herbicidal activity, SIDSP; details: 63 g a.i./ha
Method in brief: as §2

[23] = test system: prickly sida (Sida spinosa L.): SEDSP; assay: Test Example 1 pre-emergence herbicidal activity, SIDSP; details: Rate 63 g a.i./ha, visually observed 20th to 23rd day after application
Method in brief: as §3

[24] = test system: green foxtail (Setaria viridis L.), SETVI; assay: Test Example 2 post-emergence (foliage treatment) herbicidal activity, SETVI; details: 63 g a.i./ha
Method in brief: as §2

SMILES | growth controlling degree, ABUTH [2] | Pre-emergence Herbicidal Activity ECHCG (growth controlling degree) [3] | growth controlling degree, ORYSA [4] | growth controlling degree, GLXMA [5] | growth controlling degrees (%) ORYSA [6] | growth controlling degree, ZEAMX [7] | growth controlling degree, DIGSP [8] | Pre-emergence Herbicidal Activity TRZAX (growth controlling degree) [9] | Pre-emergence Herbicidal Activity AMARE (growth controlling degree) [10] | growth controlling degrees (%) SCPJO [11] | growth controlling degrees (%) SAGPY [12] | Pre-emergence Herbicidal Activity SETVI (growth controlling degree) [13] | Pre-emergence Herbicidal Activity ABUTH (growth controlling degree) [14] | Pre-emergence Herbicidal Activity ORYSA (growth controlling degree) [15] | Pre-emergence Herbicidal Activity DIGSP (growth controlling degree) [16] | Pre-emergence Herbicidal Activity GLXMA (growth controlling degree) [17] | Pre-emergence Herbicidal Activity ZEAMX (growth controlling degree) [18] | growth controlling degree, ECHCO [19] | growth controlling degrees (%) ECHOR [20] | growth controlling degree, TRZAX [21] | other results
CCOC(=O)Nc1c(OC)c(Cl)cc(F)c1-c1nn(C)c(OC(F)F)c1Cl [Compound 1-273] | 98% | 0% | 10% | 60% | 30% | 10% | 20% | 0% | 80% | 0% | 0% | 20% | 10% | 10% | 30% | 0% | 0% | 30% | 70% | 20% | growth controlling degree, AMARE [1]: 100%; growth controlling degree, SIDSP [22]: 90%
COc1c(Cl)cc(F)c(-c2nn(C)c(OC(F)F)c2Cl)c1NC(=O)c1ccc(C#N)cc1 [Compound 1-32] | 100% | 95% | 90% | 80% | 50% | 95% | 70% | 10% | 100% | 70% | 100% | 100% | 100% | 60% | 100% | 10% | 10% | 95% | 100% | 50% | growth controlling degree, AMARE [1]: 100%; Pre-emergence Herbicidal Activity SIDSP (growth controlling degree) [23]: 100%; growth controlling degree, SIDSP [22]: 100%
COCC(=O)Nc1c(OC)c(Cl)cc(F)c1-c1nn(C)c(OC(F)F)c1Cl [Compound 1-16] | 100% | 100% | 80% | 95% | 70% | 70% | 80% | 10% | 100% | 98% | 100% | 100% | 100% | 40% | 100% | 10% | 40% | 80% | 100% | 50% | Pre-emergence Herbicidal Activity SIDSP (growth controlling degree) [23]: 100%; growth controlling degree, SETVI [24]: 100%; growth controlling degree, SIDSP [22]: 100%
